Data from patent EP0799174B1, “BIOCIDAL ALCOHOLS, THEIR PRODUCTION AND THEIR USE” (SCHÜLKE & MAYR GMBH, priority 1994, dated 1996).

How the values were obtained:
Format in all cases: cell-based
[1] = system: Candida albicans ATCC 10231; test: Plate diffusion test (agar diffusion test); details: aromatic alcohol 1 part, dimethylformamide 6 parts
Description: (§1) Standard formulation: • aromatic alcohol 1 part • dimethylformamide 6 parts [table] The diameters of the inhibition zones are given in mm.

[2] = system: Pseudomonas aeruginosa ATCC 15442; test: Plate diffusion test (agar diffusion test); details: aromatic alcohol 1 part, dimethylformamide 6 parts
Description: as §1

[3] = system: Staphylococcus aureus ATCC 6538; test: Plate diffusion test (agar diffusion test); details: aromatic alcohol 1 part, dimethylformamide 6 parts
Description: as §1

[4] = system: Escherichia coli ATCC 11229; test: Plate diffusion test (agar diffusion test); details: aromatic alcohol 1 part, dimethylformamide 6 parts
Description: as §1

P. vulgaris = system: P. vulgaris
Description: as §1

[5] = system: Candida albicans ATCC 10231; test: MIC values, water-insoluble (covered area of plates, solutions in acetone); details: solution in acetone, 100% means no inhibiting action
Description: (§2) [table] The size of the covered areas of the plates is given in %; 100% means no inhibiting action.

[6] = system: Aspergillus niger ATCC 6275; test: as above; details: solution in acetone, 100% means no inhibiting action
Description: as §2

[7] = system: Staphylococcus aureus ATCC 6538; test: as above; details: solution in acetone, 100% means no inhibiting action
Description: as §2

[8] = system: Escherichia coli ATCC 11229; test: as above; details: solution in acetone, 100% means no inhibiting action
Description: as §2

Row | SMILES | diameters of the inhibition zones, C. albicans [1] [mm] | diameters of the inhibition zones, P. aeruginosa [2] [mm] | diameters of the inhibition zones, S. aureus [3] [mm] | diameters of the inhibition zones, E. coli [4] [mm] | diameters of the inhibition zones, P. vulgaris (P. vulgaris) [mm] | size of the covered areas of the plates, C. albicans ([5]; concentration 0.25 % by wt.) [%] | size of the covered areas of the plates, C. albicans ([5]; concentration 0.50 % by wt.) [%] | size of the covered areas of the plates, C. albicans ([5]; concentration 1.00 % by wt.) [%] | size of the covered areas of the plates, A. niger ([6]; concentration 0.25 % by wt.) [%] | size of the covered areas of the plates, A. niger ([6]; concentration 0.50 % by wt.) [%] | size of the covered areas of the plates, A. niger ([6]; concentration 1.00 % by wt.) [%] | size of the covered areas of the plates, S. aureus ([7]; concentration 0.25 % by wt.) [%] | size of the covered areas of the plates, S. aureus ([7]; concentration 0.50 % by wt.) [%] | size of the covered areas of the plates, S. aureus ([7]; concentration 1.00 % by wt.) [%] | size of the covered areas of the plates, E. coli ([8]; concentration 0.25 % by wt.) [%] | size of the covered areas of the plates, E. coli ([8]; concentration 0.50 % by wt.) [%] | size of the covered areas of the plates, E. coli ([8]; concentration 1.00 % by wt.) [%] | also measured
1 | CCC(CO)Cc1ccc(OC)c(OC)c1 (stereo not shown) [Alcohol 16] | 28 | 18 | 18 | 17 | 17 | – | – | – | – | – | – | – | – | – | – | – | – | –
2 | CCC(CO)Cc1ccc(Cl)c(Cl)c1 (stereo not shown) [Alcohol 11] | 13 | 0 | 17 | 0 | 0 | 100 | 80 | 10 | 100 | 70 | 10 | 100 | 90 | 5 | 100 | 100 | 90 | –
3 | CCC(CO)Cc1ccc(C)c(C)c1 (stereo not shown) [Alcohol 14] | 22 | 18 | 18 | 15 | 0 | 100 | 100 | 20 | 90 | 80 | 10 | 100 | 90 | 30 | 100 | 100 | 100 | size of the covered areas of the plates, C. albicans ([5]; concentration 0.125 % by wt.): 100%; size of the covered areas of the plates, A. niger ([6]; concentration 0.125 % by wt.): 100%; size of the covered areas of the plates, S. aureus ([7]; concentration 0.125 % by wt.): 100%; size of the covered areas of the plates, E. coli ([8]; concentration 0.125 % by wt.): 100%
4 | CCC(CO)Cc1ccccc1C (stereo not shown) [Alcohol 12] | 22 | 15 | 20 | 17 | 13 | – | 100 | 80 | – | 100 | 80 | – | 100 | 90 | – | 100 | 100 | –
5 | CCCCCC(CO)Cc1ccccc1 (stereo not shown) [Alcohol 18] | 11 | 0 | 11 | 0 | 0 | 100 | 80 | 70 | 100 | 40 | 0 | 100 | 20 | 0 | 100 | 100 | 100 | –
6 | C=CCC(CO)Cc1ccccc1 (stereo not shown) [Alcohol 17] | 17 | 12 | 16 | 13 | 13 | – | 100 | 100 | – | 100 | 80 | – | 100 | 100 | – | 100 | 90 | –
7 | CCC(CO)Cc1ccc(C)cc1 (stereo not shown) [Alcohol 13] | 19 | 13 | 16 | 13 | 14 | 100 | 100 | 90 | 100 | 90 | 20 | 100 | 100 | 90 | 100 | 100 | 95 | –
8 | CCC(CO)Cc1ccc(Cl)cc1 (stereo not shown) [Alcohol 10] | 15 | 0 | 14 | 11 | 0 | 100 | 90 | 10 | 90 | 70 | 10 | 100 | 100 | 10 | 100 | 100 | 100 | size of the covered areas of the plates, C. albicans ([5]; concentration 0.125 % by wt.): 100%; size of the covered areas of the plates, A. niger ([6]; concentration 0.125 % by wt.): 100%; size of the covered areas of the plates, S. aureus ([7]; concentration 0.125 % by wt.): 100%; size of the covered areas of the plates, E. coli ([8]; concentration 0.125 % by wt.): 100%
9 | CCC(CO)Cc1ccccc1Cl (stereo not shown) [Alcohol 9] | 15 | 0 | 15 | 11 | 0 | 100 | 100 | 80 | 100 | 90 | 20 | 100 | 100 | 80 | 100 | 100 | 100 | –
10 | CCC(CO)Cc1cccc(OC)c1 (stereo not shown) [Alcohol 15] | 23 | 15 | 18 | 18 | 18 | – | 100 | 100 | – | 100 | 90 | – | 100 | 100 | – | 100 | 100 | –
